According to patent US9040500B2, “Method for treating hematopoietic neoplasms” (priority 2007, dated 2015):

Legend:
subcutaneous HL60 tumors [1] = assay: Subcutaneous in vivo leukemia model (Example 1); parameters: species or system athymic nu/nu mice; settings: for tumor volume / tumor growth versus control (PBS): CA1dP or CA4P 75 mg/kg/inj, Ara-C 20 mg/kg/inj, HL60 s.c. in nu/nu mice
Protocol: (§1) HL60 (1×10^7 cells in 0.1 ml) were injected subcutaneously into the dorsa of 4-6 week old athymic nu/nu mice (Southern Research Institute). When palpable tumors were evident (average tumor volume 100 mm^3; i.e. approximately 12 days after inoculation), 6 experimental groups of mice were randomized, each with 10 animals. Treatment was initiated according to the following regimens:
Tumor volume was measured three times a week until the endpoint was reached (tumor volume >3000 mm^3), or for 90 days post-treatment.

[2] = system: intracellular reactive oxygen species (ROS); assay: Intracellular reactive oxygen species in leukemic cells; format: cell-based
[3] = system: subcutaneous solid tumors; settings: concentrations well below the maximum tolerated dose; cited from earlier work
subcutaneous HL60 tumors [4] = assay: Dose response activity in subcutaneous HL60 model (Example 2); format: in vivo, athymic nu/nu mice
Protocol: as §1, with “inoculation), ten” for “inoculation), 6”
Tumor volume was measured three times per week.

leukemic cells = assay: Leukemic cell proliferation and cell death in vitro; format: cell-based; settings: low and non-toxic doses
tubulin = settings: cited from earlier work
[5] = CA1dP combined with araC 20 mg/kg/inj
[6] = CA1dP 75 mg/kg/inj with addition of Ara-C 20 mg/kg/inj
[7] = subcutaneous mouse models of AML, single agent (introduction summary)

In the case of `Nc1ccn([C@@H]2O[C@H](CO)[C@@H](O)[C@@H]2O)c(=O)n1` [Ara-C, cytosine arabinoside, reference compound], the “tumor volume / tumor growth versus control (PBS)” value (subcutaneous HL60 tumors [1]; single agent) was “little improvement”.
In the case of `COc1cc(/C=C\c2ccc(OC)c(OP(=O)(O)O)c2OP(=O)(O)O)cc(OC)c1OC` [CA1dP, combretastatin A-1 diphosphate], the “intracellular reactive oxygen species (ROS)” value [2] is listed as “rapidly increases intracellular reactive oxygen species”, the “microtubule depolymerization and vascular shutdown causing tumor necrosis” value [3] is listed as “induces rapid microtubule depolymerization and vascular shutdown” and the “decrease in tumor volume relative to dose” value (subcutaneous HL60 tumors [4]; CA1dP 2.5, 10, 25, 75 mg/kg/inj, day 3 and 10) is listed as “clear dose response relationship”. The “duration of tumor growth inhibition, combination versus CA1dP alone” value (subcutaneous HL60 tumors [4]; [5]) was “longer growth inhibition”, the “number of complete responses, combination versus CA1dP alone” value (subcutaneous HL60 tumors [4]; [5]) was “not significantly altered” and the anti-tumor activity (subcutaneous HL60 tumors [4]; doses of CA1dP above 2.5 mg/kg) was “significant anti-tumor activity”. For the same compound, the “leukemic cell proliferation in vitro” value (leukemic cells) was “inhibit leukemic cell proliferation in vitro”, the “mitotic arrest and cell death of leukemic cells” value (leukemic cells) was “induce mitotic arrest and cell death” and the “complete regressions out of ten treated mice” value (subcutaneous HL60 tumors [1]; [6]) was “six”. The “tumor volume versus CA1dP alone” value (subcutaneous HL60 tumors [1]; [6]) was “further decreased tumor volumes”, the “tumor load with co-administered chemotherapeutic agent” value (subcutaneous HL60 tumors [1]; co-administration of AraC (introduction summary)) was “decreases tumor load even further” and the “complete tumor regressions in a population of ten treated mice” value (subcutaneous HL60 tumors [1]; single agent, 75 mg/kg/inj Q7D x 2) was “five”. For the same compound, the “tumor volume / tumor growth versus control (PBS)” value (subcutaneous HL60 tumors [1]; single agent) was “substantial decreases in tumor volume”, the “survival of treated mice” value (subcutaneous HL60 tumors [1]; [7]) was “significantly prolonged survival” and the “tumor load of treated mice” value (subcutaneous HL60 tumors [1]; [7]) was “significantly decreased tumor load”.
For `COc1ccc(/C=C\c2cc(OC)c(OC)c(OC)c2)cc1OP(=O)(O)O` [CA4P, combretastatin A-4 phosphate, reference compound], the “life span versus controls” value (subcutaneous HL60 tumors [1]; single agent, 75 mg/kg/inj) was “extended life span” and the “tumor volume / tumor growth versus control (PBS)” value (subcutaneous HL60 tumors [1]; single agent) was “delayed tumor growth”.
For `COc1ccc(/C=C\c2cc(OC)c(OC)c(OC)c2)c(O)c1O` [Combretastatin A-1], the “affinity for tubulin at the colchicine site, relative to colchicine” value (tubulin) is given as “higher affinity”.
